System: HCT116 colorectal cancer cells
Assay: Cisplatin sensitization assay (96 h cell viability MTS);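 note: compound concentration needed to lower the Cisplatin-alone IC50 by a set fold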
Format: cell-based
Details: 96 h MTS, compound plus Cisplatin
Protocol: Compounds can be screened for their ability to sensitize HCT116 colorectal cancer cells to Cisplatin using a 96 h cell viability (MTS) assay. […] Compounds and Cisplatin are then both added simultaneously to the cell media in 2-fold serial dilutions from a top final concentration of 10 μM as a full matrix of concentrations in a final cell volume of 200 μl, and the cells are then incubated at 37° C. in 5% CO2. After 96 h, 40 μl of MTS reagent (Promega G358a) is added to each well and the cells are incubated for 1 h at 37° C. in 5% CO2.

SMILES | Cisplatin Sensitization Assay
N#CCc1cnc2c(C(=O)Nc3cnccc3OCC3CC3)c(N)nn2c1 [I-O-32, 2-amino-6-(cyanomethyl)-N-(4-(cyclopropylmethoxy)pyridin-3-yl)pyrazolo[1,5-a]pyrimidine-3-carboxamide] | +++ (Compounds with a Cisplatin sensitization value of <0.02 μM are marked with “+++.”)
Cn1nncc1-c1ccncc1NC(=O)c1c(N)nn2cc(F)cnc12 [I-C-72, 2-amino-6-fluoro-N-(4-(1-methyl-1H-1,2,3-triazol-5-yl)pyridin-3-yl)pyrazolo[1,5-a]pyrimidine-3-carboxamide] | +++ (Compounds with a Cisplatin sensitization value of <0.02 μM are marked with “+++.”)
Nc1nn2cc(F)cnc2c1C(=O)Nc1cnccc1N1CCN(S(=O)(=O)C2CC2)CC1 [I-N-176, 2-amino-N-(4-(4-(cyclopropylsulfonyl)piperazin-1-yl)pyridin-3-yl)-6-fluoropyrazolo[1,5-a]pyrimidine-3-carboxamide] | +++ (Compounds with a Cisplatin sensitization value of <0.02 μM are marked with “+++.”)
CN1CCC[C@H]1C(=O)N1CCN(c2ccncc2NC(=O)c2c(N)nn3cc(F)cnc23)CC1 [I-N-198, (S)-2-amino-6-fluoro-N-(4-(4-(1-methylpyrrolidine-2-carbonyl)piperazin-1-yl)pyridin-3-yl)pyrazolo[1,5-a]pyrimidine-3-carboxamide] | ++ (Compounds with a Cisplatin sensitization value >0.02 μM but <0.2 μM are marked with “++.”)
COc1ccncc1NC(=O)c1c(N)nn2cc(F)cnc12 [I-O-4, 2-amino-6-fluoro-N-(4-methoxypyridin-3-yl)pyrazolo[1,5-a]pyrimidine-3-carboxamide] | ++ (Compounds with a Cisplatin sensitization value >0.02 μM but <0.2 μM are marked with “++.”)
C[C@@H]1CN(C2COC2)CCN1c1ccncc1NC(=O)c1c(N)nn2cc(F)cnc12 [I-N-23, (R)-2-amino-6-fluoro-N-(4-(2-methyl-4-(oxetan-3-yl)piperazin-1-yl)pyridin-3-yl)pyrazolo[1,5-a]pyrimidine-3-carboxamide] | +++ (Compounds with a Cisplatin sensitization value of <0.02 μM are marked with “+++.”)
CN(C)C1CN(C2CCN(c3ccncc3NC(=O)c3c(N)nn4cc(Cl)cnc34)CC2)C1 [I-N-94, 2-amino-6-chloro-N-(4-(4-(3-(dimethylamino)azetidin-1-yl)piperidin-1-yl)pyridin-3-yl)pyrazolo[1,5-a]pyrimidine-3-carboxamide] | +++ (Compounds with a Cisplatin sensitization value of <0.02 μM are marked with “+++.”)
CNc1cc(OC)c(NC(=O)c2c(N)nn3cc(F)cnc23)cn1 [I-O-90, 2-amino-6-fluoro-N-(4-methoxy-6-(methylamino)pyridin-3-yl)pyrazolo[1,5-a]pyrimidine-3-carboxamide] | + (Compounds with a Cisplatin sensitization value >0.2 μM but <5 μM are marked with “+.”)
Nc1nn2cc(F)cnc2c1C(=O)Nc1cncc(F)c1N1CCN(C(=O)CN2CCC2)CC1 [I-N-160, 2-amino-N-(4-(4-(2-(azetidin-1-yl)acetyl)piperazin-1-yl)-5-fluoropyridin-3-yl)-6-fluoropyrazolo[1,5-a]pyrimidine-3-carboxamide] | +++ (Compounds with a Cisplatin sensitization value of <0.02 μM are marked with “+++.”)
Nc1nn2cc(F)cnc2c1C(=O)Nc1cncc(F)c1N1CCN(S(=O)(=O)C2CC2)CC1 [I-N-159, 2-amino-N-(4-(4-(cyclopropylsulfonyl)piperazin-1-yl)-5-fluoropyridin-3-yl)-6-fluoropyrazolo[1,5-a]pyrimidine-3-carboxamide] | +++ (Compounds with a Cisplatin sensitization value of <0.02 μM are marked with “+++.”)
Nc1nn2cc(Cl)cnc2c1C(=O)Nc1cnccc1N1CCNC(C(F)(F)F)C1 (centres unmarked) [I-N-70, 2-amino-6-chloro-N-(4-(3-(trifluoromethyl)piperazin-1-yl)pyridin-3-yl)pyrazolo[1,5-a]pyrimidine-3-carboxamide] | ++ (Compounds with a Cisplatin sensitization value >0.02 μM but <0.2 μM are marked with “++.”)
CN1CCN(c2cc(Cl)ncc2NC(=O)c2c(N)nn3cc(Cl)cnc23)CC1 [I-N-52, 2-amino-6-chloro-N-(6-chloro-4-(4-methylpiperazin-1-yl)pyridin-3-yl)pyrazolo[1,5-a]pyrimidine-3-carboxamide] | ++ (Compounds with a Cisplatin sensitization value >0.02 μM but <0.2 μM are marked with “++.”)
Nc1nn2cc(F)cnc2c1C(=O)Nc1cncc(F)c1N1CCN(C(=O)C2CNC2)CC1 [I-N-168, 2-amino-N-(4-(4-(azetidine-3-carbonyl)piperazin-1-yl)-5-fluoropyridin-3-yl)-6-fluoropyrazolo[1,5-a]pyrimidine-3-carboxamide] | + (Compounds with a Cisplatin sensitization value >0.2 μM but <5 μM are marked with “+.”)
Nc1nn2cc(F)cnc2c1C(=O)Nc1cnccc1-c1cccnc1 [I-C-15, N-([3,4′-bipyridin]-3′-yl)-2-amino-6-fluoropyrazolo[1,5-a]pyrimidine-3-carboxamide] | ++ (Compounds with a Cisplatin sensitization value >0.02 μM but <0.2 μM are marked with “++.”)
Nc1nn2cc(Cl)cnc2c1C(=O)Nc1cnccc1OC1CCOCC1 [I-O-61, 2-amino-6-chloro-N-(4-((tetrahydro-2H-pyran-4-yl)oxy)pyridin-3-yl)pyrazolo[1,5-a]pyrimidine-3-carboxamide] | +++ (Compounds with a Cisplatin sensitization value of <0.02 μM are marked with “+++.”)
Nc1nn2cc(F)cnc2c1C(=O)Nc1cncc(F)c1N1CCN(C(=O)C2CCOC2)CC1 (centres unmarked) [I-N-274, 2-amino-6-fluoro-N-(5-fluoro-4-(4-(tetrahydrofuran-3-carbonyl)piperazin-1-yl)pyridin-3-yl)pyrazolo[1,5-a]pyrimidine-3-carboxamide] | +++ (Compounds with a Cisplatin sensitization value of <0.02 μM are marked with “+++.”)
CC(C)(C)Oc1ccncc1NC(=O)c1c(N)nn2cc(F)cnc12 [I-O-88, 2-amino-N-(4-(tert-butoxy)pyridin-3-yl)-6-fluoropyrazolo[1,5-a]pyrimidine-3-carboxamide] | +++ (Compounds with a Cisplatin sensitization value of <0.02 μM are marked with “+++.”)
Nc1nn2cc(F)cnc2c1C(=O)Nc1cnccc1N1CCC(S(=O)(=O)C2COC2)CC1 [I-N-200, 2-amino-6-fluoro-N-(4-(4-(oxetan-3-ylsulfonyl)piperidin-1-yl)pyridin-3-yl)pyrazolo[1,5-a]pyrimidine-3-carboxamide] | +++ (Compounds with a Cisplatin sensitization value of <0.02 μM are marked with “+++.”)
Nc1nn2cc(F)cnc2c1C(=O)Nc1cnccc1N1CCOCC1 [I-N-141, 2-amino-6-fluoro-N-(4-morpholinopyridin-3-yl)pyrazolo[1,5-a]pyrimidine-3-carboxamide] | +++ (Compounds with a Cisplatin sensitization value of <0.02 μM are marked with “+++.”)
Nc1nn2cc(Cl)cnc2c1C(=O)Nc1cnccc1N1CCC(N)CC1 [I-N-86, 2-amino-N-(4-(4-aminopiperidin-1-yl)pyridin-3-yl)-6-chloropyrazolo[1,5-a]pyrimidine-3-carboxamide] | +++ (Compounds with a Cisplatin sensitization value of <0.02 μM are marked with “+++.”)
CNC1CCN(c2ccncc2NC(=O)c2c(N)nn3cc(Cl)cnc23)CC1 [I-N-87, 2-amino-6-chloro-N-(4-(4-(methylamino)piperidin-1-yl)pyridin-3-yl)pyrazolo[1,5-a]pyrimidine-3-carboxamide] | ++ (Compounds with a Cisplatin sensitization value >0.02 μM but <0.2 μM are marked with “++.”)
Nc1nn2cc(F)cnc2c1C(=O)Nc1cnccc1N1CCN2CCOC[C@H]2C1 [I-N-116, (R)-2-amino-6-fluoro-N-(4-(hexahydropyrazino[2,1-c][1,4]oxazin-8(1H)-yl)pyridin-3-yl)pyrazolo[1,5-a]pyrimidine-3-carboxamide] | ++ (Compounds with a Cisplatin sensitization value >0.02 μM but <0.2 μM are marked with “++.”)
CO[C@H]1CCN(C(=O)C2CCN(c3ccncc3NC(=O)c3c(N)nn4cc(F)cnc34)CC2)C1 [I-G-94, (S)-2-amino-6-fluoro-N-(4-(4-(3-methoxypyrrolidine-1-carbonyl)piperidin-1-yl)pyridin-3-yl)pyrazolo[1,5-a]pyrimidine-3-carboxamide] | +++ (Compounds with a Cisplatin sensitization value of <0.02 μM are marked with “+++.”)
Cn1cncc1-c1c(F)cncc1NC(=O)c1c(N)nn2cc(F)cnc12 [I-C-79, 2-amino-6-fluoro-N-(5-fluoro-4-(1-methyl-1H-imidazol-5-yl)pyridin-3-yl)pyrazolo[1,5-a]pyrimidine-3-carboxamide] | +++ (Compounds with a Cisplatin sensitization value of <0.02 μM are marked with “+++.”)
Nc1nn2cc(F)cnc2c1C(=O)Nc1cnccc1N1CCC(c2ncon2)CC1 [I-N-241, N-(4-(4-(1,2,4-oxadiazol-3-yl)piperidin-1-yl)pyridin-3-yl)-2-amino-6-fluoropyrazolo[1,5-a]pyrimidine-3-carboxamide] | +++ (Compounds with a Cisplatin sensitization value of <0.02 μM are marked with “+++.”)
Nc1nn2cc(F)cnc2c1C(=O)Nc1cnccc1-n1ccnc1 [I-N-7, N-(4-(1H-imidazol-1-yl)pyridin-3-yl)-2-amino-6-fluoropyrazolo[1,5-a]pyrimidine-3-carboxamide] | ++ (Compounds with a Cisplatin sensitization value >0.02 μM but <0.2 μM are marked with “++.”)

Source: patent publication US10787452B2 (Vertex Pharmaceuticals Incorporated, priority 2012, dated 2020)
